Measured values reported in patent US20260000763A1, “Methods of Manufacturing Therapeutic Cells” (The Board of Trustees of the Leland Stanford Junior …, priority 2022, published 2026).

Tests used:
[1] = tested on: Nalm6 tumor line; experiment: Co-culture of CD19.28 CAR T cells with Nalm6: IncuCyte killing and cytokine ELISA; type: cell-based
Experimental: (§1) In this example, CD19.28 CAR T cells were cultured in regular complete RPMI media until day 4, and then the cells were split between 11 mM glucose-(CTR) or 11 mM inosine-(INO) containing media (unless stated otherwise). A: Annexin 5 staining was performed at day 17 post-activation. Representative histograms of n=3 donors are shown. B: Surface CD19.28 CAR expression at day 14 post-activation. C: MFI of CAR molecules on CD19.28z CAR T cell surface at day 14 post activation. D: Ratio of CD4+vs CD8+CD19.28 CAR T cells at day 14 post-activation. E: CD19.28z CAR T cells were co-cultured with cells of the Nalm6 tumor line (1:8 E: T) for 75 hrs in an IncuCyte assay. […] Representative donor of n=3 is shown. F: Control media was replaced by INO+ media at the indicated day post activation. At day 14, cells were stimulated with Nalm6 tumor line, and IL-2 and IFNγ secretion was assessed by ELISA. […] For A and B, P values were determined by paired two-tailed t-tests. […] For F and G, P values were determined by unpaired two-tailed t-tests.
(§2) In this example, CD19.28 CAR T cells were generated using a retroviral vector and at day 4 post-activation, the cells were split between 11 mM glucose-(CTR) or 11 mM inosine-(INO) containing media (unless stated otherwise). Tested first was whether the absence of glucose in the culture media has a negative effect on the viability of CAR T cells.
Tumor antigen density is one of the most important factors affecting the efficacy of CAR T immunotherapy. Therefore, assessed next was whether growing CAR T cells in inosine-containing media improves their effector function against low antigen expressing tumor lines.

[2] = tested on: CD8+ HA-CAR T cells; experiment: ATACseq chromatin accessibility of CD8+ HA- and HA-INO-CAR T cells (ChromVAR, HOMER); type: cell-based, human
Source text: Concatenated samples from n=3 donors. […] (Left) Dot plots of representative donor shown.

[3] = tested on: HA-CAR T cells; experiment: Mass cytometry single cell metabolic regulome profiling; type: cell-based, human; conditions: CyTOF, day 14
Source text: INO cultured cells also expressed higher levels of enzymes associated with glutaminolysis (GLS, GPT2), and TCA activity (IDH1, IDH2, CS, SDHA), consistent with INO induced glutamine catabolismdriving TCA through anapleurosis (FIG. 11D). Proteins of complex I and complex V of the electron transport chain were also elevated, consistent with higher oxidative phosphorylation.

[4] = tested on: CD19.28 CAR T cells; experiment: CD19.28 CAR T cells expanded in inosine vs glucose media: Annexin V, CAR expression, CD4/CD8, memory phenotype (flow cytometry); type: cell-based
Experimental: as §1
In this example, CAR T cells were cultured in control media until day 4 post activation, followed by continued expansion in regular or inosine-containing media. Phenotype of the cells was assessed by flow cytometry at day 21 post activation. A: Frequency of CD62L+ and CCR7+HA CAR+ T cells in 8 different donors. Representative histograms are shown. B: Relative frequency of central memory (CM), naïve, terminally differentiated (TEMRA) and effector memory (EM) HA CAR T cells. N=8 donors. C: Frequency of CD62L+ and CCR7+CD19.28 CAR+ T cells in 8 different donors. Representative histograms are shown. D: Relative frequency of central memory (CM), naïve, terminally differentiated (TEMRA) and effector memory (EM) CD19.28 CAR T cells. N=8 donors.
as §2

[5] = tested on: HA-CAR T cells and CD19.28z-CAR T cells; experiment: Cell cycle state by BrdU and 7AAD staining; type: cell-based; conditions: day 10, vs control cells, presence or absence of glucose
Source text: 9A: Schematic of the experimental design. […] Graphs represent median expression of indicated markers. […] Representative donor of n=2 donor shown. […] Data are mean+SD from triplicate wells. […] 9K: Schematic of the experimental design. […] Representative donor of n=3 donor shown. […] Representative donor of n=2 donor shown. […] (Top) Dot plots of representative donor shown. […] Representative donor of n=3 donor shown. […] N=2-4 donors from independent experiments. […] N=2-6 donors from independent experiments. […] N=2-4 donors from independent experiments. […] (Top) representative dot plots shown.
Further tested was whether similar functional enhancement occurred with INO exposure in the presence or absence of glucose by serially challenging HA-INO-CAR cells grown in the presence or absence of glucose with Nalm6-GD2. […] Decreased proliferation can be associated with induction of stemness or cells entering quiescence state.

[6] = tested on: Nalm6-GD2, 143b and CHL255 tumor cell lines; experiment: Co-culture of HA CAR T cells with GD2-expressing tumor lines: IncuCyte killing, IL-2 and IFNγ secretion; type: cell-based, human; conditions: for antigen induced IFNγ secretion: Nalm6-GD2 24 hrs, D14 cells, INO in presence or absence of glucose
[7] = tested on: HA-CAR T cells and CD19-CAR T cells; experiment: Seahorse analysis of mitochondrial fitness; cell size; type: cell-based
Experimental: To measure mitochondrial fitness in CAR T cells cultured in the presence or absence of INO, Seahorse analysis was performed.

[8] = tested on: GD2.bbz-CAR T cells; experiment: GD2.bbz-CAR T cells manufactured in GMP-grade AIM 5 media with increasing inosine; type: cell-based
Source text: FIG. 8B: Expansion rate of GD2.bbz-CAR T cells between day 3 and day 6 post-activation of CAR T cells grown in AIM 5 containing indicated concentration of inosine. N=4 donors from independent experiments.
FIG. 8C: Viability of GD2.bbz-CAR T cells cultured for 4 days in AIM 5 containing indicated concentration of inosine at day 6 post-activation. N=4 donors from independent experiments.
FIG. 8D: GD2.bbz-CAR T cells grown in media containing indicated inosine concentration between day 3 and day 8 post-activation and stimulated with 143b or Nalm6-GD2 tumor. IFNγ secretion after 24 hrs of co-culture was measured. Data are mean+s.d. of duplicate or triplicate wells. Representative of n=2 donors shown.
Next, to test this therapeutic window in the clinical context, GD2-CAR T cells were manufactured and determined to have anti-tumor activity in diffuse midline gliomas (DMGs) using GMP-grade AIM 5 media with increasing concentrations of INO (FIG. 8A).

[9] = day 14, 11 mM inosine vs glucose

O=c1[nH]cnc2c1ncn2[C@@H]1O[C@H](CO)[C@@H](O)[C@H]1O [inosine, Inosine]
tumor killing ([1]; Nalm6, 1:8 E:T, 75 hrs IncuCyte, cells expanded in 11 mM inosine vs glucose): increased tumor killing | secretion of IFNγ ([1]; Nalm6 expressing medium or low levels of surface CD19, day 14): significantly increased secretion | effector cytokine secretion (IL-2, IFNγ) ([1]; stimulated with Nalm6 at day 14, ELISA): increased | accessibility of RUNT, IRF and RHD family TF binding motifs ([2]; ChromVAR and HOMER): increased accessibility | genomic regions with changed chromatin accessibility ([2]; D14 CD8+ cells, three individuals): more than 10,000 genomic regions | PC1 variance ([2]; PCA of ATACseq): 57% | enzymes associated with glutaminolysis (GLS, GPT2) and TCA activity (IDH1, IDH2, CS, SDHA) [3]: higher levels | expression of CAT2 [3]: increased | proteins of complex I and complex V of the electron transport chain [3]: elevated | percentage of live cells ([4]; CD19.28 CAR T cells, 11 mM inosine vs 11 mM glucose, day 17): increase | frequency of Annexin V+ apoptotic cells ([4]; CD19.28 CAR T cells, 11 mM inosine without glucose from day 4, vs 11 mM glucose, day 17 post-activation): significantly lower frequency | CAR MFI ([4]; CD19.28z CAR T cell surface, day 14, 11 mM inosine vs glucose): increased | CD4/CD8 ratio [4, 9]: neither percentage of CAR+ T cells nor CD4/CD8 ratio was affected | percentage of CAR+ T cells [4, 9]: neither percentage of CAR+ T cells nor CD4/CD8 ratio was affected | cell cycle distribution [5]: higher proportion of cells in S/G2+M phase | cytotoxic function ([6]; INO added on day 4, 7, 10 or 14, 143b 1:1 E:T from day 15): increased cytotoxic function | antigen induced IFNγ secretion [6]: significantly enhanced antigen induced IFNγ secretion | antigen induced IFNγ secretion ([6]; listed as INO): enhanced antigen induced IFNγ secretion | tumor killing and cytokine secretion after multiple stimulations ([6]; serial challenge with Nalm6-GD2 1:1, glucose present or absent during manufacturing): enhanced tumor killing and cytokine secretion | metabolic profile of non-tonic signaling CD19-CAR T cells ([7]; Seahorse, day 11): memory-like metabolic profile | basal oxygen consumption rate (Basal OCR) ([7]; day 11, control vs INO cultured cells): did not differ | size of the cells ([7]; day 13 post-activation): increased size | cell proliferation ([8]; AIM 5 with increasing INO, day 3 to day 6): significantly decreased cell proliferation | CAR T cell viability ([8]; AIM 5 with increasing INO, day 6): no significant changes | secretion of IFNγ ([8]; challenged with 143b (low GD2) or Nalm6-GD2 (high GD2), 24 hrs): increase in secretion of IFNγ
